We go through three molecules from patent US20210177861A1, “NRF2 ACTIVATOR FOR THE TREATMENT OF ACUTE LUNG INJURY, ACUTE RESPIRATORY DISTRESS SYNDROME AND MULTIPLE ORGAN DYSFUNCTION SYNDROME” (GLAXOSMITHKLINE INTELLECTUAL PROPERTY DEVELOPMENT LIMITED, priority 2017, published 2021).

Entries after “also recorded” stand apart in the source; their conditions may differ.

In experiment [1] the test system is animals with hyperoxia-induced ALI. Conditions: animals treated with Bardoxolone; cited from earlier work.
The subject of another experiment is paraquat-treated rats. As to the kind of experiment: PQ-induced acute lung injury model (tracheal instillation of paraquat). The class given is in vivo, rat. An excerpt: The model of PQ-induced increase in lung edema formation described in Rumsey, W., et al., (Mutagenesis. 2017, 32(3):343-353) is incorporated by reference in its entirety. In support of this invention, ALI was stimulated by the tracheal instillation of PQ which damages mtDNA in lung cells and provokes a loss of epithelial/endothelial integrity and edema formation.
Age-matched male Lewis rats (250-400 g, Charles River Breeding Laboratories, Wilmington, Mass.) were allowed free access to food and water. Animals were administered NRF2 compound via tracheal instillation 24 hours prior to oxidative insult.
For studies using PQ (or N,N′-dimethyl-4,4′-[…], Sigma Aldrich, St Louis, Mo.) as the toxin, aliquots were prepared in sterile phosphate-buffered saline (PBS) and instilled directly to the trachea of the rat while under isoflurane anesthesia. Rats were anesthetized in a small acrylic induction box with 2-5% isoflurane gas. When surgical anesthesia was obtained (assessed by loss of the righting reflex followed by use of the pedal withdrawal reflex), the rat was removed from the box and placed supine on a head up, tilted platform. The trachea was illuminated and either PQ or vehicle (300 μl, doses identified in figure legends) was directly instilled into the trachea, anterior to the primary bifurcation at the carina, using a blunt-tipped needle. The animal was returned to a recovery cage, where the righting reflex was regained in 2-3 minutes.
To monitor changes in airway mechanics, rats were placed into individual plethysmograph chambers (BUXCO Electronics, Troy, N.Y.). Fresh air was supplied by bias flow pumps to the chambers. Baseline respiratory (Penh) values were collected prior to administration of PQ and on succeeding days after administration of the agent. An average Penh was calculated for a period of 5 min where enhanced pause (Penh=[(expiratory time/relaxation time)−1]×(peak expiratory flow/peak inspiratory flow)) and relaxation time is the amount of time required for 70% of the tidal volume to be expired.
For measurements of edema formation in the lungs, the tissue was excised and weighed gravimetrically. A portion was dried overnight in an oven at […]. and weighed for dry weight.
In some studies, bronchoalveolar lavage was performed to identify the immune cells infiltrating the lung in response to the toxicant. After the animals were euthanized (Fatal Plus, 100 mg/kg i.p.), the trachea was surgically exposed and a blunt-tipped needle was inserted into the trachea for administration of lavage fluid (5×5 ml Dulbecco's phosphate buffered saline, PBS). The lavage fluid was collected, placed on ice and centrifuged (3000 rpm×10 min, Beckman-Coulter, Danvers, Mass.). Supernatant was aspirated and frozen whereas the pellet was resuspended in 5 ml of PBS. An aliquot (100 μl) was centrifuged (300 rpm×5 min, cytospin, Thermo-Shandon, Waltham, Mass.) and a separate sample prepared as 1:5 dilution for total cell counts using a hemocytometer. Aliquots of cells were placed on slides and stained (Kwik-Diff-Quick, Thermo-Shandon, Waltham, Mass.) according to manufacturer's instructions. At least 200 cells were counted and percentages of different cell types were calculated (macrophages and neutrophils).
For extraction of either RNA or DNA, the tissue was added to lysis buffer (Kingfisher DNA or RNA extraction kit, Thermo Fisher Scientific, Waltham, Mass.) and the samples were processed according to the manufacturer's instructions. The nucleotide quantities were determined with respective Qubit kits (Thermo Fisher, Waltham, Mass.). For measurement of mtDNA copy number by quantitative real time PCR, nuclear and mitochondrial primer sets (1 pmol/μl), and 2× SYBR green master mix (Life Technologies, Waltham, Mass.) were added to 50 ng of DNA combined with water (total 20 ul). […]

In experiment [2] the test system is rats exposed to ozone. As to the kind of experiment: Ozone-induced lung injury (1 ppm of ozone for 3 hours). The class given is in vivo, rat. The conditions noted are these: 3 μmol/kg i.t. 24 hours prior to 1 ppm ozone for 3 hours, sacrificed four hrs later. As to the method: FIG. 4 depicts the effect of NRF2 activator Compound I on ozone-induced changes in lung wet to dry weight ratio (FIG. 4A) and relative mtDNA copy number (FIG. 4B). Rats were administered the NRF2 activator (3 μmol/kg i.t.) 24 hours prior to ozone exposure (1 ppm of ozone for 3 hours). Four hrs later the animals were sacrificed. All data represent means±S.E.M. (*, **, *** refer to p<0.05, 0.01 and 0.001, respectively).
Age-matched male Lewis rats (250-400 g, Charles River Breeding Laboratories, Wilmington, Mass.) were allowed free access to food and water. Animals were administered NRF2 compound via tracheal instillation 24 hours prior to oxidative insult. […]
In another study, rats were exposed to ozone (2.0 ppm) for a 3 hr period twice a week with a resting period of 2 days between treatments. […] Ozone was generated (Oxycycler ozonator (model# A84ZV, Biospherix Inc., Lacona, N.Y.) by passing room air through the ozonator at a rate of 50-75 cm^3/min, mixing it with filtered room air at a rate of 10 L/min, and flowing this sample into a Plexiglass chamber containing the rodents. Ozone, carbon dioxide and humidity levels in the chamber were constantly monitored (Ozone Monitor Model 450, Teledyne Advanced Pollution Instrumentation, Inc., Thousand Oaks, Calif.). The animals were euthanized as described above 24 hrs after the last exposure to ozone. See FIG. 4-5. […]

Another experiment deals with mice exposed to ozone. As to the kind of experiment: Repeated ozone exposure, alveolar barrier breakdown (serum surfactant protein-D, mtDNA). The class given is in vivo, mouse. The conditions noted are these: FIG. 6. As to the method:
Mice were exposed to ozone (1.5 ppm) for 3 hrs, twice per week for 3 weeks. Compound 1 was administered for 5 days/week, with the first dose administered 1 hour prior to first ozone administration. Blood/serum was collected 2 hrs after the final ozone exposure. Surfactant protein-D was measured using a commercially available ELISA kit. All data represent mean+/−S.E.M.
For determination of mtDNA damage (21), 15 ng of DNA in long chain PCR buffer was coupled with appropriate long and short primers for murine tissues. The reaction mixture was essentially the same for both long and short runs with the exception that the [Mg++] was 1.2 and 1.1 mM, respectively. For mouse tissues, the following thermocycler conditions were utilized: 94° C.×2 min followed by 19 cycles at 94° C.×15 sec, 64° C.×30 sec, 68° C.×8 min and finished at 72° C.×7 min; 94° C.×2 min, 94° C.×15 sec, 60° C.×30 sec, 72° C.×45 sec, and finished at 72° C.×7 min for the long and short PCR, respectively. The long and short primer sequences for mouse;
For both species, the long and short PCR products were then diluted 1:10 with Tris EDTA buffer containing 5 μl/ml of Pico Green (Molecular Probes, Invitrogen, Carlsbad Calif.) and fluorescence was monitored (485 nm excitation/528 nm emission, Envision Perkin Elmer, Waltham, Mass.). The replicates for each sample were averaged, the long primer was subtracted from the short primer, and transformed into percent of control using normalization functions (GraphPad Prism v6.0, La Jolla, Calif.). The data were calculated to reflect an increase in damage by subtracting the long primer from the short primer, rather than the opposite which would show the reduction of signal.
Surfactant protein-D (SP-D) was measured using a commercially available kit (Mouse Quantikine SP-D, R&D Systems #MSFPDO, Minneapolis, Minn.). Absorbances were monitored at 450 and 540 nm using a microplate spectrophotometer (Powerwave, BioTek, Winooski, Vt.) with Gen5 software (version 2.03.Ink). […] Degradation or breakdown of alveolar barrier and leakage of water into the alveolar is measured by wet:dry ratio. […]

The subject of experiment [3] is rats exposed to ozone. As to the kind of experiment: Severe ozone exposure (faulty ventilation, ozone above intended 1 ppm): death and glutathione. The class given is in vivo, rat. An excerpt: FIG. 5 depicts the protection offered by NRF2 activator Compound I against ozone-induced death (FIG. 5A) and loss of glutathione (FIG. 5B). Due to an unknown faulty ventilation system, ozone in the chamber built up to levels (unable to quantify) above those normally used in other studies. The intended exposure was 1 ppm. For those animals that survived, tissue values of NRF2-related parameters were examined 24 hrs. after ozone exposure. In addition, animals exposed to ozone within the control group were combined. All data represent means±S.E.M. (*, **, *** refer to p<0.05, 0.01 and 0.001, respectively). […]
In another study, rats were exposed to ozone (2.0 ppm) for a 3 hr period twice a week with a resting period of 2 days between treatments. […] Ozone was generated (Oxycycler ozonator (model# A84ZV, Biospherix Inc., Lacona, N.Y.) by passing room air through the ozonator at a rate of 50-75 cm^3/min, mixing it with filtered room air at a rate of 10 L/min, and flowing this sample into a Plexiglass chamber containing the rodents. Ozone, carbon dioxide and humidity levels in the chamber were constantly monitored (Ozone Monitor Model 450, Teledyne Advanced Pollution Instrumentation, Inc., Thousand Oaks, Calif.). The animals were euthanized as described above 24 hrs after the last exposure to ozone. See FIG. 4-5.

The test system of experiment [4] is murine model of PQ-induced ALI. Conditions: treatment with DNasel; cited from earlier work.
[5] abbreviates: relative to the PQ treated vehicle control animals, FIG. 3.

Consider `CC1(C)CC[C@]2(C(=O)O)CC[C@]3(C)[C@H](C(=O)C=C4[C@@]5(C)C=C(C#N)C(=O)C(C)(C)[C@@H]5CC[C@]43C)[C@@H]2C1` [Bardoxolone], for which the “protection from hyperoxia-induced ALI” value in experiment [1] was “protected them from hyperoxia-induced ALI”.

Take `CC[C@@H]1CN(Cc2cc([C@H](CC(=O)O)c3ccc4c(nnn4CC)c3C)ccc2C)S(=O)(=O)c2cccnc2O1` [Compound I, (S)-3-(3-(((R)-4-ethyl-1,1-dioxido-3,4-dihydro-2H-pyrido[2,3-b][1,4,5]oxathiazepin-2-yl)methyl)-4-methylphenyl)-3-(1-ethyl-4-methyl-1H-benzo[d][1,2,3]triazol-5-yl)propanoic acid]: the “inflammatory immune cells in bronchoalveolar lavage fluid (macrophages and neutrophils)” value with paraquat-treated rats (paraquat-treated rats, FIG. 2) is on record as “decreased numbers of immune cells in the bronchoalveolar lavage fluid; also recorded: reduction in inflammatory immune cells”. In the experiment on paraquat-treated rats (rat lung, PQ-treated, FIG. 3B), the “NQO1 activity (NRF2-mediated gene expression)” value is given as “stimulated an upregulation of NQO1 activity”. In addition, the “DNA oxidation (8-OHdG levels)” value with paraquat-treated rats (rat lung, PQ-treated, FIG. 3C) is given as “attenuating the impact of PQ on DNA oxidation”. Also, the “PQ-mediated mtDNA damage (relative mtDNA copy number)” value with paraquat-treated rats (rat lung, FIG. 3A) is reported as “blockade of mtDNA damage; also recorded: prevented”. For the same molecule, the “lung function, expressed as Penh” value in the experiment with paraquat-treated rats (rats, Compound I suspension i.t. 24 hrs prior to PQ (0.05 mg/kg i.t.), FIG. 1A) is given as “improves lung function”. In addition, the “lung edema formation, lung wet:dry weight ratio” value with paraquat-treated rats (rats, Compound I suspension i.t. 24 hrs prior to PQ (0.05 mg/kg i.t.), FIG. 1B) is recorded as “maintenance of the lung wet:dry ratio; also recorded: protecting against the PQ-induced increase in lung edema formation”. In the experiment with paraquat-treated rats (setting [5]), the TXNRD1 gene expression result is recorded as “exception” and the “expression of other NRF2 genes (GCLC, HO-1, etc.)” value is on record as “up-regulated”. Further, the “ozone-induced edema formation (lung wet to dry weight ratio)” value with rats exposed to ozone [2] (FIG. 4A) is given as “protected”. Moreover, in the experiment on rats exposed to ozone [2] (FIG. 4B), the “ozone-induced mtDNA damage (relative mtDNA copy number)” value is given as “protected”. For the same molecule, the “degradation or breakdown of the alveolar barrier” value in the experiment with mice exposed to ozone (mice, ozone 1.5 ppm 3 hrs twice per week for 3 weeks) is reported as “prevented; also recorded: protective effect”. For the same molecule, the “surfactant D (serum surfactant protein-D), biomarker of epithelial/alveolar barrier integrity” value in the experiment with mice exposed to ozone (mice, ozone 1.5 ppm 3 hrs twice per week for 3 weeks, dosing 5 days/week, serum 2 hrs after final ozone exposure) is on record as “dose dependently prevented”. Further, in the experiment on mice exposed to ozone (repeated ozone exposures), the “changes in mtDNA” value is on record as “dose dependently prevented”. Further, the “ozone-induced death (survival)” value with rats exposed to ozone [3] (severe ozone exposure, level unable to quantify (intended 1 ppm), FIG. 5A) is “protection; also recorded: survive the lethal insult”. In addition, the “ozone-induced loss of glutathione” value in the experiment on rats exposed to ozone [3] (surviving animals, tissue 24 hrs after ozone exposure, FIG. 5B) is on record as “protection”.

B1: DNasel: DNasel, presumably targeting expulsed mtDNA (protein, UniProt P24855 23-282, looked up)
Deoxyribonuclease-1: LKIAAFNIQTFGETKMSNATLVSYIVQILSRYDIALVQEVRDSHLTAVGKLLDNLNQDAPDTYHYVVSEPLGRNSYKERYLFVYRPDQVSAVDSYYYDDGCEPCGNDTFNREPAIVRFFSRFTEVREFAIVPLHAAPGDAVAEIDALYDVYLDVQEKWGLEDVMLMGDFNAGCSYVRPSQWSSIRLWTSPTFQWLIPDSADTTATPTHCAYDRIVVAGMLLRGAVVPDSALPFNFQAAYGLSDQLAQAISDHYPVEVMLK
As to B1, the “PQ-induced lung injury and survival” value in experiment [4] was “Protection from PQ-induced lung injury and survival”.
